Measurements reported in the NIST ThermoML archive (doi:10.1016/j.jct.2014.05.020).

Assay: excess molar enthalpy (molar enthalpy of mixing); xn = mol fraction of the nth substance listed
Conditions: Flow calorimetry

C1CCCCC1 [cyclohexane] + c1ccccc1
Conditions | excess molar enthalpy [kcal/mol]
423.2 K, 25000 kPa, Liquid, x2 = 0.829 | 0.0735
423.2 K, 25000 kPa, Liquid, x2 = 0.8729 | 0.0576
423.2 K, 25000 kPa, Liquid, x2 = 0.916 | 0.0394
423.2 K, 25000 kPa, Liquid, x2 = 0.9584 | 0.0193
473.2 K, 5000 kPa, Liquid, x2 = 0.1189 | 0.0453
473.2 K, 5000 kPa, Liquid, x2 = 0.1765 | 0.0633
473.2 K, 5000 kPa, Liquid, x2 = 0.233 | 0.0777
473.2 K, 5000 kPa, Liquid, x2 = 0.3424 | 0.0989
473.2 K, 5000 kPa, Liquid, x2 = 0.4475 | 0.11
473.2 K, 5000 kPa, Liquid, x2 = 0.5485 | 0.111
473.2 K, 5000 kPa, Liquid, x2 = 0.6457 | 0.103
473.2 K, 5000 kPa, Liquid, x2 = 0.7392 | 0.0873
473.2 K, 5000 kPa, Liquid, x2 = 0.8293 | 0.0633
473.2 K, 5000 kPa, Liquid, x2 = 0.8732 | 0.0486
473.2 K, 5000 kPa, Liquid, x2 = 0.9162 | 0.0332
473.2 K, 5000 kPa, Liquid, x2 = 0.9585 | 0.0184
473.2 K, 15000 kPa, Liquid, x2 = 0.1188 | 0.0434
473.2 K, 15000 kPa, Liquid, x2 = 0.1763 | 0.0605
473.2 K, 15000 kPa, Liquid, x2 = 0.2327 | 0.075
473.2 K, 15000 kPa, Liquid, x2 = 0.3421 | 0.0956
473.2 K, 15000 kPa, Liquid, x2 = 0.4471 | 0.106
473.2 K, 15000 kPa, Liquid, x2 = 0.5482 | 0.107
473.2 K, 15000 kPa, Liquid, x2 = 0.6454 | 0.1
473.2 K, 15000 kPa, Liquid, x2 = 0.7389 | 0.0848
473.2 K, 15000 kPa, Liquid, x2 = 0.8291 | 0.0615
473.2 K, 15000 kPa, Liquid, x2 = 0.873 | 0.047
473.2 K, 15000 kPa, Liquid, x2 = 0.9161 | 0.0316
473.2 K, 15000 kPa, Liquid, x2 = 0.9584 | 0.0173
473.2 K, 25000 kPa, Liquid, x2 = 0.1187 | 0.042
473.2 K, 25000 kPa, Liquid, x2 = 0.1762 | 0.0588
473.2 K, 25000 kPa, Liquid, x2 = 0.2325 | 0.0729
473.2 K, 25000 kPa, Liquid, x2 = 0.3418 | 0.0929
473.2 K, 25000 kPa, Liquid, x2 = 0.4469 | 0.103
473.2 K, 25000 kPa, Liquid, x2 = 0.5479 | 0.104
473.2 K, 25000 kPa, Liquid, x2 = 0.6451 | 0.0968
473.2 K, 25000 kPa, Liquid, x2 = 0.7388 | 0.0815
473.2 K, 25000 kPa, Liquid, x2 = 0.829 | 0.0584
473.2 K, 25000 kPa, Liquid, x2 = 0.8729 | 0.0442
473.2 K, 25000 kPa, Liquid, x2 = 0.916 | 0.0288
473.2 K, 25000 kPa, Liquid, x2 = 0.9584 | 0.0149
498.2 K, 5000 kPa, Liquid, x2 = 0.1189 | 0.0447
498.2 K, 5000 kPa, Liquid, x2 = 0.1765 | 0.0625
498.2 K, 5000 kPa, Liquid, x2 = 0.233 | 0.0774
498.2 K, 5000 kPa, Liquid, x2 = 0.3424 | 0.0984
498.2 K, 5000 kPa, Liquid, x2 = 0.4475 | 0.109
498.2 K, 5000 kPa, Liquid, x2 = 0.5485 | 0.11
498.2 K, 5000 kPa, Liquid, x2 = 0.6457 | 0.102
498.2 K, 5000 kPa, Liquid, x2 = 0.7392 | 0.0863
498.2 K, 5000 kPa, Liquid, x2 = 0.8293 | 0.0618
498.2 K, 5000 kPa, Liquid, x2 = 0.8732 | 0.0465
498.2 K, 5000 kPa, Liquid, x2 = 0.9162 | 0.0295
498.2 K, 15000 kPa, Liquid, x2 = 0.1188 | 0.0418
498.2 K, 15000 kPa, Liquid, x2 = 0.1763 | 0.0582
498.2 K, 15000 kPa, Liquid, x2 = 0.2327 | 0.0716
498.2 K, 15000 kPa, Liquid, x2 = 0.3421 | 0.091
498.2 K, 15000 kPa, Liquid, x2 = 0.4471 | 0.101
498.2 K, 15000 kPa, Liquid, x2 = 0.5482 | 0.102
498.2 K, 15000 kPa, Liquid, x2 = 0.6454 | 0.0943
498.2 K, 15000 kPa, Liquid, x2 = 0.7389 | 0.0791
498.2 K, 15000 kPa, Liquid, x2 = 0.8291 | 0.0565
498.2 K, 15000 kPa, Liquid, x2 = 0.873 | 0.042
498.2 K, 15000 kPa, Liquid, x2 = 0.9161 | 0.0262
523.2 K, 5000 kPa, Liquid, x2 = 0.1189 | 0.0458
523.2 K, 5000 kPa, Liquid, x2 = 0.1765 | 0.0644
523.2 K, 5000 kPa, Liquid, x2 = 0.233 | 0.0798
523.2 K, 5000 kPa, Liquid, x2 = 0.3424 | 0.101
523.2 K, 5000 kPa, Liquid, x2 = 0.4475 | 0.112
523.2 K, 5000 kPa, Liquid, x2 = 0.5485 | 0.114
523.2 K, 5000 kPa, Liquid, x2 = 0.6457 | 0.105
523.2 K, 5000 kPa, Liquid, x2 = 0.7392 | 0.0877
523.2 K, 5000 kPa, Liquid, x2 = 0.8293 | 0.0619
523.2 K, 5000 kPa, Liquid, x2 = 0.8732 | 0.0463
523.2 K, 5000 kPa, Liquid, x2 = 0.9162 | 0.0303
523.2 K, 5000 kPa, Liquid, x2 = 0.9585 | 0.0173
523.2 K, 15000 kPa, Liquid, x2 = 0.1188 | 0.0387
523.2 K, 15000 kPa, Liquid, x2 = 0.1763 | 0.0539
523.2 K, 15000 kPa, Liquid, x2 = 0.2327 | 0.0667
523.2 K, 15000 kPa, Liquid, x2 = 0.3421 | 0.0855
523.2 K, 15000 kPa, Liquid, x2 = 0.4471 | 0.0946
523.2 K, 15000 kPa, Liquid, x2 = 0.5482 | 0.0951
523.2 K, 15000 kPa, Liquid, x2 = 0.6454 | 0.088
523.2 K, 15000 kPa, Liquid, x2 = 0.7389 | 0.0732
523.2 K, 15000 kPa, Liquid, x2 = 0.8291 | 0.0516
523.2 K, 15000 kPa, Liquid, x2 = 0.873 | 0.0391
523.2 K, 15000 kPa, Liquid, x2 = 0.9161 | 0.025
523.2 K, 15000 kPa, Liquid, x2 = 0.9584 | 0.0128
523.2 K, 25000 kPa, Liquid, x2 = 0.1187 | 0.0369
523.2 K, 25000 kPa, Liquid, x2 = 0.1762 | 0.0516
523.2 K, 25000 kPa, Liquid, x2 = 0.2325 | 0.0643
523.2 K, 25000 kPa, Liquid, x2 = 0.3418 | 0.0817
523.2 K, 25000 kPa, Liquid, x2 = 0.4469 | 0.0899
523.2 K, 25000 kPa, Liquid, x2 = 0.5479 | 0.0903
523.2 K, 25000 kPa, Liquid, x2 = 0.6451 | 0.0836
523.2 K, 25000 kPa, Liquid, x2 = 0.7388 | 0.0694
523.2 K, 25000 kPa, Liquid, x2 = 0.829 | 0.0483
523.2 K, 25000 kPa, Liquid, x2 = 0.8729 | 0.0367
523.2 K, 25000 kPa, Liquid, x2 = 0.916 | 0.0234
523.2 K, 25000 kPa, Liquid, x2 = 0.9584 | 0.0123
573.2 K, 15000 kPa, Fluid (supercritical or subcritical phases), x2 = 0.1188 | 0.0358
573.2 K, 15000 kPa, Fluid (supercritical or subcritical phases), x2 = 0.1763 | 0.0503
573.2 K, 15000 kPa, Fluid (supercritical or subcritical phases), x2 = 0.2327 | 0.0611
573.2 K, 15000 kPa, Fluid (supercritical or subcritical phases), x2 = 0.3421 | 0.0788
573.2 K, 15000 kPa, Fluid (supercritical or subcritical phases), x2 = 0.4471 | 0.088
573.2 K, 15000 kPa, Fluid (supercritical or subcritical phases), x2 = 0.5482 | 0.0891
573.2 K, 15000 kPa, Fluid (supercritical or subcritical phases), x2 = 0.6454 | 0.0821
573.2 K, 15000 kPa, Fluid (supercritical or subcritical phases), x2 = 0.7389 | 0.0687
573.2 K, 15000 kPa, Fluid (supercritical or subcritical phases), x2 = 0.8291 | 0.0493
573.2 K, 15000 kPa, Fluid (supercritical or subcritical phases), x2 = 0.873 | 0.0361
573.2 K, 15000 kPa, Fluid (supercritical or subcritical phases), x2 = 0.9161 | 0.025
573.2 K, 15000 kPa, Fluid (supercritical or subcritical phases), x2 = 0.9584 | 0.012
573.2 K, 25000 kPa, Fluid (supercritical or subcritical phases), x2 = 0.1187 | 0.0333
573.2 K, 25000 kPa, Fluid (supercritical or subcritical phases), x2 = 0.1762 | 0.0474
573.2 K, 25000 kPa, Fluid (supercritical or subcritical phases), x2 = 0.2325 | 0.0572
573.2 K, 25000 kPa, Fluid (supercritical or subcritical phases), x2 = 0.3418 | 0.0738
573.2 K, 25000 kPa, Fluid (supercritical or subcritical phases), x2 = 0.4469 | 0.0825
573.2 K, 25000 kPa, Fluid (supercritical or subcritical phases), x2 = 0.5479 | 0.0834
573.2 K, 25000 kPa, Fluid (supercritical or subcritical phases), x2 = 0.6451 | 0.0767
573.2 K, 25000 kPa, Fluid (supercritical or subcritical phases), x2 = 0.7388 | 0.0641
573.2 K, 25000 kPa, Fluid (supercritical or subcritical phases), x2 = 0.829 | 0.045
573.2 K, 25000 kPa, Fluid (supercritical or subcritical phases), x2 = 0.8729 | 0.0332
573.2 K, 25000 kPa, Fluid (supercritical or subcritical phases), x2 = 0.916 | 0.02
573.2 K, 25000 kPa, Fluid (supercritical or subcritical phases), x2 = 0.9584 | 0.00954
